Here are results for 3 compounds from US6559161B1, “Cytotoxic pyrido[2,3,4-ki]acridine derivatives, their preparation and their therapeutic use” (Universidad de Barcelona, priority 1999, dated 2003).

Where two headings read alike, the source gives them in different places.

Series [1] has as its system P-388D1 (ATCC CCL-46, lymphoid neoplasm from DBA/2 mouse). Description: cytotoxicity, growth inhibition of P-388D1 cells in culture. It is filed as cell-based. Conditions: approximate IC50, three days of incubation at 37° C., growth vs control wells. An excerpt: (§1) The antitumour activity of the compounds of the present invention has been detected in vitro by culturing the tumour cells following the methodology described in Bergeron et al (1984), and by Schroeder et al (1981). Activity against different tumours as mouse lymphoma, human NSC lung carcinoma, human melanoma and human colon carcinoma has been observed.
(§2) Biological activity: cells were maintained in logarithmic phase of growth in Eagle's Minimum Essential Medium, with Earle's Balanced Salts, with 2.0 mM L-glutamine, with non-essential amino acids, without sodium bicarbonate (EMEM/neaa); supplemented with 10% Fetal Calf Serium (FCS), 10^−2 M sodium bicarbonate and 0.1 g/l penicillin-G+streptomycin sulfate.
(§3) The tumour cell lines employed have been P-388D1 (ATCC CCL-46, suspension culture of a lymphoid neoplasm from DBA/2 mouse), A549 (ATCC CCL-185, monolayer culture of a human lung carcinoma), HT-29 (ATCC HTB-38, monolayer culture of a human colon carcinoma) and SK-MEL-28 (ATCC HTB-72, monolayer culture of a human melanoma).
P-388D1 cells were seeded into 16 mm wells at 1×10^4 cells per well in 1 ml aliquots of MEM 5FCS containing the indicated concentration of drug. A separate set of cultures without drug was seeded as control growth to ensure that cells remained in expotential phase of growth. All determinations were carried out in duplicate. After three days of incubation at 37° C., 10% CO2 in a 98% humid atmosphere, an approximate IC50 was determined by comparing the growth in wells with drug to the growth in wells control.

In series [2] the test system is A549 (ATCC CCL-185, human lung carcinoma). As to the kind of experiment: cytotoxicity, growth inhibition of A549 cells, Crystal Violet staining. The series is classed as cell-based. The note with it: approximate IC50, three days of incubation at 37° C., read-out: IC50 (μM) A549 ATCC-CCL-L-185.
From the text: as §1, §2, §3
(§4) A549, HT-29 and SK-MEL-28 were seeded into 16 mm wells at 2×10^4 cells per well in 1 ml aliquots of MEM 10FCS containing the indicated concentration of drug. A separate set of cultures without drug and was seeded as control growth to ensure that cells remained in exponential phase of growth. All determinations were carried out in duplicate. After three days of incubation at 37° C., 10% CO2 in a 98% humid atmosphere, the wells were stained with 0.1% Crystal Violet. An approximate IC50 was determined by comparing the growth in wells with drug to the growth in wells control.

For series [3], the system named is HT-29 (ATCC HTB-38, human colon carcinoma). As to the kind of experiment: cytotoxicity, growth inhibition of HT-29 cells, Crystal Violet staining. The series is classed as cell-based. The note with it: approximate IC50, three days of incubation at 37° C.
From the text: as §1, §2, §3, §4

For series [4], the system named is SK-MEL-28 (ATCC HTB-72, human melanoma). As to the kind of experiment: cytotoxicity, growth inhibition of SK-MEL-28 cells, Crystal Violet staining. The note with it: approximate IC50, three days of incubation at 37° C. It is filed as cell-based.
From the text: as §1, §2, §3, §4

As usually defined, the IC50 is the concentration that inhibits the measured activity by half. Consider `COc1ccc2c3c(c4ccccc4nc13)C=CN2` [Example 1, 3H-6-Methoxypyrido[2,3,4-kl]acridine], for which the half-maximal inhibitory concentration (IC50) in series [1] came to 0.5 µM; in series [2] it was 0.05 µM; in series [3], 0.5 µM; in series [4], 0.05 µM.
Broadly, the melting point is the temperature, or range, at which the solid turns liquid. `COc1cc([N+](=O)[O-])c2c3c(c4ccccc4nc13)C=CN2` [Example 3, 6-Methoxy-4-nitro-3H-pyrido[2,3,4-kl]acridine]: the melting point was 220 to 223 °C. The same compound registered an IC50 in series [1] (Mus musculus, P388D1, 72 h) of 0.34 µM. The IC50 in series [2] (Homo sapiens, A549, 72 h) is 0.03 µM. The same compound displayed an IC50 in series [3] (Homo sapiens, HT-29, 72 h) of 0.34 µM. In series [4] (Homo sapiens, SK-MEL-28, 72 h), this compound came in with a half-maximal inhibitory concentration (IC50) of 0.03 µM.
In the case of `COc1cc(NC(C)=O)c2c3c(c4ccccc4nc13)C=CN2` [Example 4, 4-Acetylamino-6-methoxy-3H-pyrido[2,3,4-kl]acridine], the melting point was in the range of 128 to 132 °C. This compound also came in with an IC50 in series [1] (Mus musculus, P388D1, 72 h) of 1.64 µM. Besides, in series [2] (Homo sapiens, A549, 72 h), the IC50 amounted to 0.03 µM. Moreover, in series [3] (Homo sapiens, HT-29, 72 h), the concentration for half-maximal inhibition (IC50) is 1.64 µM. For the same compound, the concentration for half-maximal inhibition (IC50) in series [4] (Homo sapiens, SK-MEL-28, 72 h) is 0.03 µM.
